The record followed here is patent US5750531A, “Pyrimidine derivatives and processes for the preparation thereof” (Yuhan Corporation, priority 1994, dated 1998).

pIC50: −log10 of the molar value. Structures can show the parent of a compound that is named as a salt.

In general, pIC50 refers to −log10 of the IC50, conventionally taken in molar units.

One assay concerns gastric secretion. Description: Inhibition of gastric secretion (pylorus ligation, Shay method). The class given is in vivo, Male Sprague-Dawley rats. To be noted: 20 mg/kg intraduodenally, 5 hours; for Relative Acid Output: acid output relative to omeprazole; for Rel. Vol.: gastric juice volume relative to omeprazole; for Rel. Conc.: acid concentration relative to omeprazole. The procedure:
Inhibition of gastric secretion […] Under ether anesthesia, the abdomen was incised, and the pylorus was ligated. […] After closing the abdominal cavity, the rats were placed for 5 hours and then killed by cervical dislocation. The stomach was extracted to obtain gastric juice. The gastric juice was centrifuged at 1,000 g to remove precipitates. The amount and acidity of the gastric juice were measured. Relative volumes, relative acid concentrations and relative acid outputs of the test compounds were calculated from equations(I), (II) and (III) and the results are shown in Table 2. […] Group 3) (II) […] (III)

The target in assay [1] is proton pump(H^+ /K^+ ATPase). Description: Inhibition of proton pump(H^+ /K^+ ATPase) activity. The class given is biochemical. To be noted: pH 6.0, 37° C., 30 minutes preincubation and 30 minutes reaction; read-out: IC50 Test compound. On the procedure: Test 1: Inhibition of proton pump(H^+ /K^+ ATPase) activity
A proton pump enzyme source was prepared by the same method as in Experiment 1-1 of WO 94/14795. Further, the inhibitory effect of proton pump activity was measured by the same method as in Experiment 1-2 of WO 94/14795.
Namely, the proton pump activity stimulated by Mg^++ was used as a negative comparative group, and the activity stimulated by Mg^++ and K^+ was used as a positive comparative group. The comparative compound was omeprazole.
Test tubes were divided into 4 groups: Group 1 as negative comparative group(n=3), Group 2 as positive comparative group(n=3), Group 3(n=5×2) to be administered with the compound of the present invention and Group 4(n=5×2) to be administered with the comparative compound.
The inhibitory effects of Groups 3 and 4 on proton pump activity were measured by employing the compound prepared in Example and omeperazole, respectively, each of which was dissolved in dimethylsulfoxide at 5 different concentrations.
To each of Groups 1, 2, 3 and 4 were added 100 μl of magnesium chloride(40 mM) dissolved in 40 mM Tris-HCl buffer(pH 6.0) and 100μ of the enzyme source. Then, 50μ of potassium chloride(50 mM) and 50 μl of ammonium chloride(6 mM) dissolved in 40 mM Tris-HCl buffer(pH 6.0) were added to all groups except for Group 1.
10 μl of dimethylsulfoxide was added to each of Groups 1 and 2; and to Group 3 was added 10 μl of the solution in which the compound prepared in Example was dissolved in dimethylsulfoxide at 5 different concentrations(n=5×2). To Group 4, 10 μl of the solution prepared by dissolving omeprazole in dimethylsulfoxide at 5 different concentrations(37.6, 21.4, 12.2, 7.0 and 4.0 μM) was added(n=5×2). 40 mM Tris-HCl buffer(pH=6.0) was added thereto so as to make the total volume 400 μl.
Thereafter, the test tubes of each Group were placed at 37° C. for 30 minutes for the preincubation. 100 μl of ATP solution (6.6 mM) was added until the reaction volume became 500 μl. After the reaction was carried out at 37° C. for 30 minutes, 25% cold trichloroacetic acid was added to terminate the enzyme reaction. The released inorganic phosphate was measured by an automatic analyzer(Express 550, Corning).
The difference between Group 1 and Group 2 represents the proton pump activity activated by K^+ only. The inhibition percentages of Groups 3 and 4 were calculated from Litchfield-wilcoxon equation[see, e.g., J. pharmacol. Exp. Ther., 96, 99(1949)]. The concentrations of the test compounds which inhibit 50% of the proton pump activity are represented as IC50 in Table 1.

Take `Cc1cc(F)ccc1Nc1nccc(N2CCc3ccccc3C2C)n1.Cl` (centres unmarked) [Example 1, 2-(2-methyl-4-fluorophenylamino)-4-(1-methyl-1,2,3,4-tetrahydroisoquinolin-2-yl)pyrimidine hydrochloride]: in the assay with gastric secretion, the “Relative Acid Output” value is recorded as 0.11 and the Rel. Vol. was 0.12. Also, the negative logarithm of the IC50 (pIC50) in assay [1] is 5.27.

Turning to `Cc1nc(N2CCc3ccccc3[C@H]2C)nc(Nc2ccc(F)cc2)c1C.Cl` [Example 69, (R)-5,6-dimethyl-4-(4-fluorophenylamino)-2-(1-methyl-1,2,3,4-tetrahydroisoquinolin-2-yl)pyrimidine hydrochloride], in the assay on gastric secretion, the Rel. Conc. worked out at 0.39, the “Relative Acid Output” value was found to be 0.76 and the Rel. Vol. came to 1.61. Further, the negative logarithm of the IC50 (pIC50) in assay [1] was 5.54.

For the compound `Cc1cc(F)ccc1Nc1nc2c(c(N3CCc4ccccc4C3C)n1)CCCC2.Cl` (centres unmarked) [Example 32, 2-(2-methyl-4-fluorophenylamino)-4-(1-methyl-1,2,3,4-tetrahydroisoquinolin-2-yl)-5,6,7,8-tetrahydroquinazoline hydrochloride], in the assay with gastric secretion, the Rel. Conc. is 0.97, the “Relative Acid Output” value worked out at 0.91 and the Rel. Vol. stood at 1.03. Also, the pIC50 in assay [1] was 5.92.

Turning to `CCc1nc(Nc2ccc(F)cc2C)nc(N2CCc3ccsc3C2C)c1C.Cl` (centres unmarked) [Example 56, 5-methyl-2-(2-methyl-4-fluorophenylamino)-4-(7-methyl-4,5,6,7-tetrahydrothieno[2,3-c]pyridin-6-yl)-6-ethylpyrimidine hydrochloride], in the assay with gastric secretion, the Rel. Conc. stood at 0.08, the “Relative Acid Output” value came to 0.08 and the Rel. Vol. was determined as 0.01.

For `Cc1ccccc1Nc1nc2c(c(N3CCc4ccccc4C3)n1)CCCC2.Cl` [Example 51, 2-(2-methylphenylamino)-4-(1,2,3,4-tetrahydroisoquinolin-2-yl)-5,6,7,8-tetrahydroquinazoline hydrochloride], in the assay on gastric secretion, the Rel. Conc. amounted to 0.12, the “Relative Acid Output” value was found to be 0.59 and the Rel. Vol. was 0.59. The pIC50 in assay [1] was 5.96.

As to `CCc1nc(N(C)c2ccccc2)nc(N2CCc3ccccc3C2)c1C.Cl` [Example 46, 5-methyl-6-ethyl-2-(N-methylphenylamino)-4-(1,2,3,4-tetrahydroisoquinolin-2-yl)pyrimidine hydrochloride], in the assay on gastric secretion, the Rel. Conc. was determined as 0.44, the “Relative Acid Output” value was 0.74 and the Rel. Vol. was 0.73. The pIC50 in assay [1] is approximately 4.72.

As to `CCc1cc(N2CCc3ccccc3C2)nc(Nc2ccc(F)cc2C)n1.Cl` [Example 37, 6-ethyl-2-(2-methyl-4-fluorophenylamino)-4-(1,2,3,4-tetrahydroisoquinolin-2-yl)pyrimidine hydrochloride], in the assay on gastric secretion, the Rel. Conc. was determined as 0.42, the “Relative Acid Output” value turned out to be 0.82 and the Rel. Vol. was determined as 0.82. In addition, in assay [1], the negative-log IC50 (pIC50) was 6.15.

Take `Cc1nc(N2CCc3ccccc3[C@@H]2C)nc(N(C)c2ccccc2)c1C.Cl` [Example 73, (S)-5,6-dimethyl-4-(N-methylphenylamino)-2-(1-methyl-1,2,3,4-tetrahydroisoquinolin-2-yl)pyrimidine hydrochloride]: in the assay with gastric secretion, the “Relative Acid Output” value was 0.13 and the Rel. Vol. worked out at 0.18.

In the case of `Cc1cc(F)ccc1Nc1nc2c(c(N3CCc4ccccc4C3C)n1)CCC2` (centres unmarked) [Example 29, hydrochloride], in the assay on gastric secretion, the Rel. Conc. was 0.31, the “Relative Acid Output” value is 0.6 and the Rel. Vol. was 0.56. Also, the negative-log IC50 (pIC50) in assay [1] is 6.40.

Take `Cl.Fc1ccc(Nc2nc3c(c(N4CCc5ccccc5C4)n2)CCCC3)cc1` [Example 49, 2-(4-fluorophenylamino)-4-(1,2,3,4-tetrahydroisoquinolin-2-yl)-5,6,7,8-tetrahydroquinazoline hydrochloride]: in the assay on gastric secretion, the Rel. Conc. was determined as 0.02, the “Relative Acid Output” value is listed as 0.16 and the Rel. Vol. worked out at 0.2. Also, the pIC50 in assay [1] is approximately 4.97.

For `Cc1cc(N2CCc3ccccc3C2)nc(N(C)c2ccccc2)n1.Cl` [Example 36, 6-methyl-2-(N-methylphenylamino)-4-(1,2,3,4-tetrahydroisoquinolin-2-yl)pyrimidine hydrochloride], in the assay with gastric secretion, the Rel. Conc. is 0.05, the “Relative Acid Output” value came out at 0.41 and the Rel. Vol. amounted to 0.65.

For `CCc1cc(N2CCc3ccccc3C2C)nc(N(C)c2ccccc2)n1.Cl` (centres unmarked) [Example 7, 6-ethyl-2-(N-methylphenylamino)-4-(1-methyl-1,2,3,4-tetrahydroisoquinolin-2-yl)pyrimidine hydrochloride], in the assay with gastric secretion, the Rel. Conc. is 0.09, the “Relative Acid Output” value is on record as 0.48 and the Rel. Vol. is 0.51.

Turning to `CCc1nc(N2CCc3ccccc3C2C)nc(Nc2ccc(F)cc2C)c1C.Cl` (centres unmarked) [Example 80, 5-methyl-6-ethyl-4-(2-methyl-4-fluorophenylamino)-2-(1-methyl-1,2,3,4-tetrahydroisoquinolin-2-yl)pyrimidine hydrochloride], in the assay on gastric secretion, the Rel. Conc. turned out to be 0.29, the “Relative Acid Output” value is reported as 0.44 and the Rel. Vol. stood at 0.32.

Take `Cc1cc(N2CCc3ccccc3C2C)nc(N(C)c2ccccc2)n1.Cl` (centres unmarked) [Example 4, 6-methyl-2-(N-methylphenylamino)-4-(1-methyl-1,2,3,4-tetrahydroisoquinolin-2-yl)pyrimidine hydrochloride]: in the assay on gastric secretion, the Rel. Conc. came to 0.56, the “Relative Acid Output” value was found to be 0.87 and the Rel. Vol. was 0.99.

In the case of `Cc1nc(N2CCc3ccccc3C2C)nc(N(C)c2ccccc2)c1C.Cl` (centres unmarked) [Example 71, 5,6-dimethyl-4-(N-methylphenylamino)-2-(1-methyl-1,2,3,4-tetrahydroisoquinolin-2-yl)pyrimidine hydrochloride], in the assay on gastric secretion, the “Relative Acid Output” value is 0.16 and the Rel. Vol. was 0.25.

For `CC1c2ccccc2CCN1c1nc(N(C)c2ccccc2)nc2c1CCCC2.Cl` (centres unmarked) [Example 33, 2-(N-methylphenylamino)-4-(1-methyl-1,2,3,4-tetrahydroisoquinoline-2-yl)-5,6,7,8-tetrahydroquinazoline hydrochloride], in the assay on gastric secretion, the Rel. Conc. amounted to 1.13, the “Relative Acid Output” value came out at 0.94 and the Rel. Vol. was found to be 0.93.

For `CCCc1cc(N2CCc3ccccc3C2C)nc(N(C)c2ccccc2)n1.Cl` (centres unmarked) [Example 11, 2-(N-methylphenylamino)-4-(1-methyl-1,2,3,4-tetrahydroisoquinolin-2-yl)-6-propylpyrimidine hydrochloride], in the assay with gastric secretion, the Rel. Conc. was 0.41, the “Relative Acid Output” value was found to be 0.82 and the Rel. Vol. was determined as 0.99.

For the compound `Cc1nc(N2CCc3ccccc3C2)nc(N(C)c2ccccc2)c1C.Cl` [Example 76, 5,6-dimethyl-4-(N-methylphenylamino)-2-(1,2,3,4-tetrahydroisoquinolin-2-yl)pyrimidine hydrochloride], in the assay on gastric secretion, the Rel. Conc. worked out at 0.17, the “Relative Acid Output” value is given as 0.33 and the Rel. Vol. was found to be 0.28.

As for `Cc1nc(N2CCc3ccsc3C2C)nc(N(C)c2ccccc2)c1C.Cl` (centres unmarked) [Example 79, 5,6-dimethyl-4-(N-methylphenylamino)-2-(7-methyl-4,5,6,7-tetrahydrothieno[2,3-c]pyridin-6-yl)pyrimidine hydrochloride], in the assay on gastric secretion, the Rel. Conc. amounted to 1.28, the “Relative Acid Output” value came out at 0.49 and the Rel. Vol. was 0.54.

Turning to `Cc1nc(N2CCc3ccccc3[C@H]2C)nc(N(C)c2ccccc2)c1C.Cl` [Example 72, (R)-5,6-dimethyl-4-(N-methylphenylamino)-2-(1-methyl-1,2,3,4-tetrahydroisoquinolin-2-yl)pyrimidine hydrochloride], in the assay on gastric secretion, the Rel. Conc. was 0.16, the “Relative Acid Output” value is 0.25 and the Rel. Vol. came out at 0.34.
